SMILES strings stand for the structures.

A short description of experiment [1]: Ratio of Ki value towards dopamine D2L receptor to that of serotonin S-2A receptor.
In another experiment the target is D(2) dopamine receptor (Homo sapiens, UniProt P14416). The experiment can be described thus: Ability to inhibit the binding of [3H]spiperone to the Dopamine receptor D2L in COS7 cells. The class given is cell-based, COS-7.
In experiment [2] the target is T1, 5-hydroxytryptamine receptor 2A (Rattus norvegicus, UniProt P14842). The experiment can be described thus: Ability to inhibit the binding of iodine-125-labelled lysergic acid diethylamide([125I]-LSD) to the S-2A serotonin receptor.
Experiment [3] has as its target T2, 5-hydroxytryptamine receptor 2C (Rattus norvegicus, UniProt P08909).
T2 sequence (P08909 whole entry): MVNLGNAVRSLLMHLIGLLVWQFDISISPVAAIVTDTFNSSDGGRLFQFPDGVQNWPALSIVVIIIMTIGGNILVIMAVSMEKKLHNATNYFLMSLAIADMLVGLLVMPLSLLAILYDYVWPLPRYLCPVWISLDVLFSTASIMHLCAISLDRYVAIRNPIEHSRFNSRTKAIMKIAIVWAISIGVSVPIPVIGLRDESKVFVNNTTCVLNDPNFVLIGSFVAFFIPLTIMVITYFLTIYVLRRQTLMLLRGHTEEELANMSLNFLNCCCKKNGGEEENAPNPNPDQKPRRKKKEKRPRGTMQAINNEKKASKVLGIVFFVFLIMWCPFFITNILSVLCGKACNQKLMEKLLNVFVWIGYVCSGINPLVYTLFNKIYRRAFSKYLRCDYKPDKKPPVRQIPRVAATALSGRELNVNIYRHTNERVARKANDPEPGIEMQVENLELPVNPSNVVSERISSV
The experiment can be described thus: Ability to inhibit the binding of iodine-125-labelled lysergic acid diethylamide([125I]-LSD) to the S-2C serotonin receptor.

The target of a further experiment is T3, D(4) dopamine receptor (Homo sapiens, UniProt P21917).
T3 sequence (P21917 whole entry): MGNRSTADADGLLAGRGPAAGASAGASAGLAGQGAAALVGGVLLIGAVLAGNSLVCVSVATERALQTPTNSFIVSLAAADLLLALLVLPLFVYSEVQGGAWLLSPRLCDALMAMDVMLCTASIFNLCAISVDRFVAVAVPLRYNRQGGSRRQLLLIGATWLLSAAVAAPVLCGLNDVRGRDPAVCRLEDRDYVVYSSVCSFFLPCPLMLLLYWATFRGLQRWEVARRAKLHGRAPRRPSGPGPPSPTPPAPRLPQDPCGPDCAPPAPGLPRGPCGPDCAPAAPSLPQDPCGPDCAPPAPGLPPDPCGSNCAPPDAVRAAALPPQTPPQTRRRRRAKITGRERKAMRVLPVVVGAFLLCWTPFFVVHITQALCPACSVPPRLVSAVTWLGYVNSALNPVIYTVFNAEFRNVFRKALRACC
The experiment can be described thus: Ability to inhibit the binding of [3H]spiperone to the Dopamine receptor D4 in COS7 cells. In kind it is cell-based, COS-7.

The target of experiment [4] is T1, 5-hydroxytryptamine receptor 2A. The experiment can be described thus: Ability to inhibit the binding of iodine-125-labelled lysergic acid diethylamide([125I]-LSD) to the S-2A serotonin receptor in NIH3T3 cell line membranes. In kind it is cell-based.
For experiment [5], the target named is T2, 5-hydroxytryptamine receptor 2C. Kind of experiment: Ability to inhibit the binding of iodine-125-labelled lysergic acid diethylamide([125I]-LSD) to the S-2C serotonin receptor in NIH3T3 cell line membranes. The class given is cell-based.

Chain of D(2) dopamine receptor (P14416 whole entry): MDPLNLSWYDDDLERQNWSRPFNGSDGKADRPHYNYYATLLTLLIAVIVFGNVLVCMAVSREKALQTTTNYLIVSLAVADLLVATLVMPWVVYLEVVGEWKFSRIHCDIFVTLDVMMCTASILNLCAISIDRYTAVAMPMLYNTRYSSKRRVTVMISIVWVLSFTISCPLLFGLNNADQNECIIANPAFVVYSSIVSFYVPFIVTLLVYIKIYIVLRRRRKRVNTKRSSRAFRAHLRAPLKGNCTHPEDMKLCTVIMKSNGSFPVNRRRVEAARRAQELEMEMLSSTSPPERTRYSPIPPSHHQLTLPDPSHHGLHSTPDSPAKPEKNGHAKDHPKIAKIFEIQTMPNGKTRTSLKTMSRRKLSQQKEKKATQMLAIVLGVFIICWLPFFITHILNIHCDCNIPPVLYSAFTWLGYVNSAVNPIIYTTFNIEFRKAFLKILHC
T1 sequence (P14842 whole entry): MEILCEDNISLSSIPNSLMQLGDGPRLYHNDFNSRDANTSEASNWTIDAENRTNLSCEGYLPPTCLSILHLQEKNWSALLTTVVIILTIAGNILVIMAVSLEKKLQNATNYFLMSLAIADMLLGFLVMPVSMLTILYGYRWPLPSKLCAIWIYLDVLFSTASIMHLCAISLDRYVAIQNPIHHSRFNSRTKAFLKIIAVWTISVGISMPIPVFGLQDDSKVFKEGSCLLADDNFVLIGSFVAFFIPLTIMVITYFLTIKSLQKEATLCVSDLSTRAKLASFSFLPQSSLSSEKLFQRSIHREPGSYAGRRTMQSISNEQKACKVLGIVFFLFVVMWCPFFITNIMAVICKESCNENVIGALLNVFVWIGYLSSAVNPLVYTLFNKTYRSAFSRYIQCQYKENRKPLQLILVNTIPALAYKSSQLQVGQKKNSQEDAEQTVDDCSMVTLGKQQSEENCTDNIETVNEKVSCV

Turning to `CN1CCN(C2=Cc3ccccc3Oc3ccc(Cl)cc32)CC1`, in experiment [1], the Ratio is 0.8.

In the case of `CN1CC=C(C2=Cc3ccccc3Cc3ccccc32)CC1`, the inhibition constant Ki stood at 89 nM at D(2) dopamine receptor, 6 nM in experiment [2], 14 nM in experiment [3] and 12 nM on D(4) dopamine receptor. Also, in experiment [1], the Ratio stood at 15.

Turning to `C=CCN1CC=C(C2=Cc3ccccc3Oc3ccccc32)CC1`, the Ki in experiment [4] came out at 22 nM; at D(2) dopamine receptor, 110 nM; in experiment [5] it was 51 nM; on D(4) dopamine receptor, 37 nM. The Ratio in experiment [1] amounted to 5.

For `CC(C)=C1c2ccccc2C=C(C2=CCN(C)CC2)c2cc(Cl)ccc21`, the inhibitory constant (Ki) at D(2) dopamine receptor turned out to be 440 nM; in experiment [2] it was 760 nM; in experiment [3] it was 1200 nM; at D(4) dopamine receptor, 100 nM. Moreover, the Ratio in experiment [1] was 0.58.

For the molecule `CN1CCC(C2=Cc3ccccc3Oc3ccccc32)CC1`, the inhibition constant Ki stood at 3 nM in experiment [4], 82 nM at D(2) dopamine receptor, 8 nM in experiment [5] and 9.5 nM at D(4) dopamine receptor. Also, the Ratio in experiment [1] was determined as 30.

As to `CC1c2ccccc2C=C(C2=CCN(C)CC2)c2ccccc21` (configuration not stated), in experiment [1], the Ratio is 9.4.

In the case of `CN1CCN(C2=Cc3ccccc3Oc3ccccc32)CC1`, the Ratio in experiment [1] came to 5.

As for `C=CCN1CC=C(C2=Cc3ccccc3Cc3ccccc32)CC1`, the Ki on D(2) dopamine receptor amounted to 83 nM; in experiment [2], 20 nM; in experiment [3], 46 nM; on D(4) dopamine receptor, 60 nM. In addition, the Ratio in experiment [1] came to 4.2.

Turning to `CCN1CC=C(C2=Cc3ccccc3Oc3ccccc32)CC1`, the Ki amounted to 6 nM in experiment [4], 61 nM at D(2) dopamine receptor, 14 nM in experiment [5] and 26 nM at D(4) dopamine receptor. For the same molecule, in experiment [1], the Ratio came to 10.

For `CCN1CC=C(C2=Cc3ccccc3Cc3ccccc32)CC1`, the Ki at D(2) dopamine receptor was determined as 44 nM; in experiment [2], 4.5 nM; in experiment [3], 7 nM; on D(4) dopamine receptor, 28 nM. The Ratio in experiment [1] was 9.8.

Turning to `CN1CC=C(C2=Cc3ccccc3Oc3ccccc32)CC1`, the Ki in experiment [4] stood at 6 nM; in experiment [5] it was 20 nM; on D(4) dopamine receptor it was 29 nM.

For the molecule `CC(C)=C1c2ccccc2C=C(C2=CCN(C)CC2)c2ccccc21`, in experiment [1], the Ratio stood at 0.48.

The values above are taken from ChEMBL document CHEMBL1128570, “Binding of 5H-dibenzo[a,d]cycloheptene and dibenz[b,f]oxepin analogues of clozapine to dopamine and serotonin receptors” (J Med Chem, 1995).
